Data on 17 compounds can be found in ChEMBL document CHEMBL5291721, “A preclinical secondary pharmacology resource illuminates target-adverse drug reaction associations of marketed drugs” (Nat Commun, 2023).

In assay [1] the target is Sodium-dependent dopamine transporter (Homo sapiens, UniProt Q01959).
Assay [2] has as its target T1, 5-hydroxytryptamine receptor 2B (Homo sapiens, UniProt P41595). Format: functional, cell-based.
A further assay concerns the target T2, B2 bradykinin receptor (Homo sapiens, UniProt P30411).
T2 sequence (P30411 whole entry): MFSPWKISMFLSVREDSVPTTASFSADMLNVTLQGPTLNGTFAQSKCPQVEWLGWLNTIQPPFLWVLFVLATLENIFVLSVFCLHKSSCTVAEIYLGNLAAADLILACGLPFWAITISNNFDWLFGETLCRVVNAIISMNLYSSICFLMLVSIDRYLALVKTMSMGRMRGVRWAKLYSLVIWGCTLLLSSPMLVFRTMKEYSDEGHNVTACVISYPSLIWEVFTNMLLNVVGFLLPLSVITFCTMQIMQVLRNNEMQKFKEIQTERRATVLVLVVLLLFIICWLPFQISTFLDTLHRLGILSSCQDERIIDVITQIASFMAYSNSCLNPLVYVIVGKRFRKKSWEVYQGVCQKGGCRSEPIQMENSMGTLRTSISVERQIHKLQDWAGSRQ

For the next assay, the target named is T3, Adenosine receptor A3 (Homo sapiens, UniProt P0DMS8).
T3 sequence (P0DMS8 whole entry): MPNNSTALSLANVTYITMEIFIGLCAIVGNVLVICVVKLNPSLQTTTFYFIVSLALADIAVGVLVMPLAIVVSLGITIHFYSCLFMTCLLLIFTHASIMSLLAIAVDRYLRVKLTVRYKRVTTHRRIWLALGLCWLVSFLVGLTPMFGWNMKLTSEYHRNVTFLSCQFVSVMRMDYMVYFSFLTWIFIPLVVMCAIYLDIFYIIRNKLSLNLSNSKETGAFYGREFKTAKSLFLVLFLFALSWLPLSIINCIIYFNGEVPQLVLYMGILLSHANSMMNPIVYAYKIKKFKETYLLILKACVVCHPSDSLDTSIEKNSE

The target in assay [3] is T1, 5-hydroxytryptamine receptor 2B. The format is functional, cell-based. This is another data set of the same source.
In another assay the target is D(1A) dopamine receptor (Homo sapiens, UniProt P21728). The format is functional, cell-based.
Assay [4] addresses T4, Muscarinic acetylcholine receptor M2 (Homo sapiens, UniProt P08172).
T4 sequence (P08172 whole entry): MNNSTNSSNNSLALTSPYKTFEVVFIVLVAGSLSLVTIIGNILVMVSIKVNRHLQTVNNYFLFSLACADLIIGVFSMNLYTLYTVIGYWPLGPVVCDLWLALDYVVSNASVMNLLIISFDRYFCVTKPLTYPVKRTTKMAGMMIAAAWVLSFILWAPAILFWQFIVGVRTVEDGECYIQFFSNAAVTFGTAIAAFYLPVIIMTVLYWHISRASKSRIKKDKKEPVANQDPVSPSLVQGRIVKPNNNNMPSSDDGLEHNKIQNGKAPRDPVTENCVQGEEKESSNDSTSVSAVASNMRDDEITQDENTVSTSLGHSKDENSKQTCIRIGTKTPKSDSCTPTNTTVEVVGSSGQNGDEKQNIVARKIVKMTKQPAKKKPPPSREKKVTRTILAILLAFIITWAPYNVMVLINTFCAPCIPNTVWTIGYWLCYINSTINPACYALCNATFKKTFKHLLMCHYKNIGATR
The format is functional, cell-based.

In assay [5] the target is T5, Amine oxidase [flavin-containing] A (Homo sapiens, UniProt P21397).
T5 sequence (P21397 whole entry): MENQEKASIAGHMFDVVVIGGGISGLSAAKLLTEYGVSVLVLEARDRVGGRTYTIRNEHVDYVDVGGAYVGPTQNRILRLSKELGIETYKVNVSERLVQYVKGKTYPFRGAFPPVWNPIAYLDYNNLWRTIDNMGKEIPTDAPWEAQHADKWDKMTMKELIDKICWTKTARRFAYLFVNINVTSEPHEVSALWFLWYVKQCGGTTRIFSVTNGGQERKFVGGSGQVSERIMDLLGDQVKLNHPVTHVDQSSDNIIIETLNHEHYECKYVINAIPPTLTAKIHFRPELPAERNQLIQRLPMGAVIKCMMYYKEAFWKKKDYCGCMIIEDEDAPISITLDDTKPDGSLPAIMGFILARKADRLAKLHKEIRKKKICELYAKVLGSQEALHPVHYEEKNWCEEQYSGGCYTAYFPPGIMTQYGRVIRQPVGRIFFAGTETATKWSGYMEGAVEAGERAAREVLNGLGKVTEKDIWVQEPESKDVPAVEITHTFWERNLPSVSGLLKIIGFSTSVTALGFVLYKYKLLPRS
The format is functional.

Assay [6] addresses T6, Cannabinoid receptor 1 (Homo sapiens, UniProt P21554). Format: functional, cell-based.
Assay [7] has as its target T6, Cannabinoid receptor 1. The format is functional, cell-based. This is another data set of the same source.

The term AC50 denotes the concentration at which the activity in the assay is half-maximal. Low values mean greater potency, high ones weaker potency.
Also: assay procedure not described here.

Chain of D(1A) dopamine receptor (P21728 whole entry): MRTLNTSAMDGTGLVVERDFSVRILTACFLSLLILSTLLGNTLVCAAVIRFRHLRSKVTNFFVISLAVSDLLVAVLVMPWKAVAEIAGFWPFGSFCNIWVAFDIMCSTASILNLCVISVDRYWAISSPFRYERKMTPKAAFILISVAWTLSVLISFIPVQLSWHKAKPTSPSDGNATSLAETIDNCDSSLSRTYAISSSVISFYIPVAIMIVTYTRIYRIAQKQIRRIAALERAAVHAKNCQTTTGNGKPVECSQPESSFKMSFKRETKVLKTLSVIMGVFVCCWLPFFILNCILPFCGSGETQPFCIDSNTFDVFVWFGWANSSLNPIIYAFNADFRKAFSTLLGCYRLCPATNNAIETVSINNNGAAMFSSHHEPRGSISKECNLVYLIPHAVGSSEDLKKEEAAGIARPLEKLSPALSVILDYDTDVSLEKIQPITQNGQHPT
T1 sequence (P41595 whole entry): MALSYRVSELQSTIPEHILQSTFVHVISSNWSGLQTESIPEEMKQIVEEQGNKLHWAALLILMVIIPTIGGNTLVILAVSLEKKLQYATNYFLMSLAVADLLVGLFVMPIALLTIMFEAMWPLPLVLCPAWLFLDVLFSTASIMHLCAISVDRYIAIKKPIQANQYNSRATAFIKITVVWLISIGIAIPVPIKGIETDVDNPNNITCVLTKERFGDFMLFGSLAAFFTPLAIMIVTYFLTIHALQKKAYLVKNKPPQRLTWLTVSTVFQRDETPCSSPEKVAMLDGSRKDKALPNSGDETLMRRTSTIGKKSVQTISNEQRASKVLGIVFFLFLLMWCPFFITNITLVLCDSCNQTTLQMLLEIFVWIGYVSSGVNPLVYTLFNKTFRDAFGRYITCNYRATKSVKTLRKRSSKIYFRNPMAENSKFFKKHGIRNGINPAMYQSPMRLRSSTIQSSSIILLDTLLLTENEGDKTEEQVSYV
T6 sequence (P21554 whole entry): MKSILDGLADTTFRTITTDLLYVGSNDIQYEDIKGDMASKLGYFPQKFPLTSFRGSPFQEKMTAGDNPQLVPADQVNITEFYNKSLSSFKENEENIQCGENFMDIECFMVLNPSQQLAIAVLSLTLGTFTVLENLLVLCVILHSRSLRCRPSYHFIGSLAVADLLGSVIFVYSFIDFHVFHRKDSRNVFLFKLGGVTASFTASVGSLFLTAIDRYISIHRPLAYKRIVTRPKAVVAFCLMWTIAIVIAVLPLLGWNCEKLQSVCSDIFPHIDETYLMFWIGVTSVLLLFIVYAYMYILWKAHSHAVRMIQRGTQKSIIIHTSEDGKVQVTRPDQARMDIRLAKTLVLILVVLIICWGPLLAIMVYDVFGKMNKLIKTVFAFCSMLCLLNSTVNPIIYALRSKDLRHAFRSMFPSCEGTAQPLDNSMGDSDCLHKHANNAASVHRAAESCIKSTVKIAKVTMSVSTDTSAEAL
Chain of Sodium-dependent dopamine transporter (Q01959 whole entry): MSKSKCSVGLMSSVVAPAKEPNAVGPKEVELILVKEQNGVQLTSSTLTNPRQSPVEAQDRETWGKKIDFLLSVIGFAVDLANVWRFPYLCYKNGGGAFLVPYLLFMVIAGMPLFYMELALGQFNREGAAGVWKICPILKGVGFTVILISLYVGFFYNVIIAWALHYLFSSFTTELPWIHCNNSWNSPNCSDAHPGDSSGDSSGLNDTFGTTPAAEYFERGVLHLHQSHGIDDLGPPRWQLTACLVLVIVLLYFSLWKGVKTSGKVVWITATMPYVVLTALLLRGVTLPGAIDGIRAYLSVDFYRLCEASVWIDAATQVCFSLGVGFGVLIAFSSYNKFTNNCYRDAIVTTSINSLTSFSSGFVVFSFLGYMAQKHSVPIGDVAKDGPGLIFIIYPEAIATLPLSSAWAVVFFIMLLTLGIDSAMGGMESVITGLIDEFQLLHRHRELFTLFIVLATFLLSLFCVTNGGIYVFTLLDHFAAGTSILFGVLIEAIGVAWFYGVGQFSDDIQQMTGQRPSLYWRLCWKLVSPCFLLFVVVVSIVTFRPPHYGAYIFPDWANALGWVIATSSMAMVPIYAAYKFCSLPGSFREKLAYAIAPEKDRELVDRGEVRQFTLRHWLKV

On to `NS(=O)(=O)c1cc2c(cc1C(F)(F)F)NC(Cc1ccccc1)NS2(=O)=O` (stereo not drawn) [BENDROFLUMETHIAZIDE], for which the AC50 was 3.2 µM in assay [1]; greater than 10 µM in assay [2]; greater than 10 µM on B2 bradykinin receptor; greater than 10 µM on Adenosine receptor A3; greater than 10 µM in assay [3]; greater than 10 µM at D(1A) dopamine receptor. Besides, the AC50 in [4] and in [5] was greater than 10 µM each time.

`CCC(=O)OCC(=O)[C@@]1(OC(=O)CC)[C@@H](C)C[C@H]2[C@@H]3CCC4=CC(=O)C=C[C@]4(C)[C@@]3(F)[C@@H](O)C[C@@]21C` [BETAMETHASONE DIPROPIONATE]: the AC50 is greater than 30 µM in assay [1]; greater than 30 µM at Cannabinoid receptor 1 [6]; greater than 30 µM in assay [2]; greater than 30 µM on B2 bradykinin receptor; 24 µM on Adenosine receptor A3; greater than 30 µM in assay [3]. The half-maximal activity concentration (AC50) (on Cannabinoid receptor 1 [7]; on D(1A) dopamine receptor; in assay [4]; in assay [5]) was greater than 30 µM each time.

On to `CS(=O)(=O)OCCCCOS(C)(=O)=O` [BUSULFAN], for which the concentration at half-maximal activity (AC50) (in assay [1]; at Cannabinoid receptor 1 [6]; in [2]; on B2 bradykinin receptor; on Adenosine receptor A3; in [3]) was greater than 30 µM throughout. The AC50 (on Cannabinoid receptor 1 [7]; on D(1A) dopamine receptor; in assay [4]; in assay [5]) was greater than 30 µM in each case.

As for `CCOC(=O)NNc1ccc(N(CC)CC(C)O)nn1` (stereo not drawn) [CADRALAZINE], the AC50 (in assay [1]; at Cannabinoid receptor 1 [6]; in assay [2]; at B2 bradykinin receptor; at Adenosine receptor A3; in assay [3]) was greater than 30 µM throughout. Also, the AC50 (on Cannabinoid receptor 1 [7]; on D(1A) dopamine receptor; in assay [4]; in [5]) was greater than 30 µM in each case.

As for `CCCC(C)(COC(N)=O)COC(=O)NC(C)C` (stereo not drawn) [CARISOPRODOL], the AC50 in [1] is greater than 10 µM; on Cannabinoid receptor 1 [6], greater than 30 µM; in assay [2], greater than 10 µM; on B2 bradykinin receptor, greater than 30 µM; on Adenosine receptor A3, greater than 30 µM; in assay [3] it was greater than 10 µM. Further, the AC50 on Cannabinoid receptor 1 [7] was greater than 30 µM; at D(1A) dopamine receptor, greater than 10 µM; in assay [4], greater than 10 µM; in assay [5], greater than 10 µM.

Turning to `C=CC1=C(C(=O)O)N2C(=O)[C@@H](NC(=O)/C(=N\OCC(=O)O)c3csc(N)n3)[C@H]2SC1` [CEFIXIME], the AC50 (in assay [1]; on Cannabinoid receptor 1 [6]; in [2]; at B2 bradykinin receptor; at Adenosine receptor A3; at Cannabinoid receptor 1 [7]) was greater than 30 µM in each case. Moreover, the AC50 (at D(1A) dopamine receptor; in [4]; in assay [5]) was greater than 30 µM in each case.

As to `CO[C@@]1(NC(=O)Cc2cccs2)C(=O)N2C(C(=O)O)=C(COC(N)=O)CS[C@@H]21` [CEFOXITIN], the AC50 (in assay [1]; at Cannabinoid receptor 1 [6]; in assay [2]; at B2 bradykinin receptor; at Adenosine receptor A3; in assay [3]) was greater than 30 µM each time. The AC50 (on Cannabinoid receptor 1 [7]; on D(1A) dopamine receptor; in assay [4]; in assay [5]) was greater than 30 µM throughout.

As to `CC(C)(C)NCC(O)c1cc(Cl)c(N)c(Cl)c1` (stereo not drawn) [CLENBUTEROL], the AC50 in [1] was 27.1 µM; at Cannabinoid receptor 1 [6] it was greater than 30 µM; in [2], greater than 30 µM; at B2 bradykinin receptor it was greater than 30 µM; on Adenosine receptor A3, greater than 30 µM; in assay [3] it was greater than 30 µM. For the same compound, the AC50 (at Cannabinoid receptor 1 [7]; on D(1A) dopamine receptor; in assay [4]; in assay [5]) was greater than 30 µM throughout.

For `C[C@@H]1C[C@H]2[C@@H]3C[C@H](F)C4=CC(=O)C=C[C@]4(C)[C@@]3(F)[C@@H](O)C[C@]2(C)[C@H]1C(=O)CO` [DIFLUCORTOLONE], the half-maximal activity concentration (AC50) was greater than 30 µM in assay [1]; greater than 30 µM in [2]; greater than 30 µM on Adenosine receptor A3; 18 µM in [3]; greater than 30 µM in assay [5].

On to `CC(C)c1cc2c(cc1S(=O)(=O)O)[C@@]1(C)CCC[C@@](C)(C(=O)O)[C@@H]1CC2` [ECABET], for which the AC50 (in [1]; on Cannabinoid receptor 1 [6]; in assay [2]; at B2 bradykinin receptor; at Adenosine receptor A3; in assay [3]) was greater than 30 µM in each case. Also, the AC50 (on Cannabinoid receptor 1 [7]; on D(1A) dopamine receptor; in [4]; in assay [5]) was greater than 30 µM each time.

For `CN(c1nccc(=O)[nH]1)C1CCN(c2nc3ccccc3n2Cc2ccc(F)cc2)CC1` [MIZOLASTINE], the half-maximal activity concentration (AC50) in assay [1] was greater than 30 µM; on Cannabinoid receptor 1 [6] it was greater than 30 µM; in assay [2] it was greater than 30 µM; on B2 bradykinin receptor it was greater than 30 µM; at Adenosine receptor A3, greater than 30 µM; in assay [3], 17 µM. In addition, the AC50 (on Cannabinoid receptor 1 [7]; on D(1A) dopamine receptor; in [4]; in [5]) was greater than 30 µM throughout.

Turning to `O=C1Nc2ccc(Cl)cc2C(c2ccccc2)=NC1O` (stereo not drawn) [OXAZEPAM], the concentration at half-maximal activity (AC50) in [1] was greater than 10 µM; on Cannabinoid receptor 1 [6], greater than 30 µM; in [2], greater than 10 µM; on B2 bradykinin receptor, greater than 30 µM; at Adenosine receptor A3, greater than 30 µM; in assay [3], greater than 10 µM. The concentration at half-maximal activity (AC50) at Cannabinoid receptor 1 [7] is greater than 30 µM; at D(1A) dopamine receptor, greater than 10 µM; in [4] it was greater than 10 µM; in assay [5] it was greater than 10 µM.

As to `Cc1ccc(=O)n(-c2ccccc2)c1` [PIRFENIDONE], the AC50 (in [1]; on Cannabinoid receptor 1 [6]; in assay [2]; on B2 bradykinin receptor; at Adenosine receptor A3; in [3]) was greater than 30 µM throughout. Also, the AC50 (on Cannabinoid receptor 1 [7]; on D(1A) dopamine receptor; in [4]; in [5]) was greater than 30 µM each time.

For `C[n+]1ccccc1/C=N/O` [PRALIDOXIME], the AC50 (on Cannabinoid receptor 1 [6]; in [2]; in assay [3]; at Cannabinoid receptor 1 [7]; on D(1A) dopamine receptor; in [5]) was greater than 30 µM throughout.

In the case of `COc1cc2nccc(Oc3ccc(NC(=O)Nc4cc(C)on4)c(Cl)c3)c2cc1OC` [TIVOZANIB], the AC50 in assay [1] was 2.6 µM; on Adenosine receptor A3, greater than 3 µM; in [4], greater than 30 µM; in [5], greater than 30 µM.

In the case of `COc1ccc(C(CN(C)C)C2(O)CCCCC2)cc1` (stereo not drawn) [VENLAFAXINE], the half-maximal activity concentration (AC50) at B2 bradykinin receptor was greater than 30 µM; on Adenosine receptor A3, greater than 30 µM; on D(1A) dopamine receptor, greater than 30 µM; in assay [4] it was greater than 10 µM; in [5], greater than 10 µM.

As for COLISTIN, the AC50 (on Cannabinoid receptor 1 [6]; in [2]; in assay [3]; at Cannabinoid receptor 1 [7]; on D(1A) dopamine receptor; in assay [5]) was greater than 30 µM each time.
